{
  "source": "EPA's ToxValDB 9.5",
  "tested_on": "Mus musculus",
  "conditions": "oral",
  "key": {"[1]": {"conditions": "short-term, duration: 10 days, diet, M, C57BL/6, spleen: spleen: absolute weight + thymus: thymus: absolute weight"}, "[2]": {"conditions": "short-term, duration: 10 days, diet, M, C57BL/6, spleen: spleen: relative weight + thymus: thymus: relative weight"}, "[3]": {"conditions": "short-term, duration: 13 days, drinking water, F, C57BL/6, spleen: spleen CD8+ cells"}, "[4]": {"conditions": "short-term, duration: 14 days, gavage, M, BALB/c, relative mRNA expression of IL-1beta in spleen + thymus: apoptosis in thymus cells"}, "[5]": {"conditions": "short-term, duration: 14 days, gavage, M, BALB/c, relative mRNA expression of IL-1beta in thymus + spleen: apoptosis in spleen cells"}, "[6]": {"conditions": "short-term, duration: 14 days, gavage, M, Kunming, COX-2 in liver tissue"}, "[7]": {"conditions": "short-term, duration: 14 days, gavage, M, Kunming, CRP in liver tissue + liver: IL-6 levels"}, "[8]": {"conditions": "short-term, duration: 15 days, drinking water, F, C57BL/6, IgG antibody titer (SRBC) + IgM antibody titer (SRBC) + spleen: spleen: absolute weight + spleen: spleen: relative weight"}, "[9]": {"conditions": "short-term, duration: 15 days, drinking water, F, C57BL/6, IgM antibody titer (DNP)"}, "[10]": {"conditions": "short-term, duration: 15 days, drinking water, F, C57BL/6, IgM antibody titer (SRBC) + spleen: spleen: relative weight"}, "[11]": {"conditions": "short-term, duration: 15 days, drinking water, F, C57BL/6, spleen: spleen: absolute weight + spleen: spleen: relative weight + thymus: thymus: absolute weight + thymus: thymus: relative weight"}, "[12]": {"conditions": "short-term, duration: 15 days, drinking water, F, IgM antibody titer (SRBC)"}, "[13]": {"conditions": "short-term, duration: 21 days, drinking water, M, ICR, cytokine mRNA for IL-1 beta in spleen (relative to beta-actin) + expression of c-myc in thymus (relative to beta-actin) + mean body weight…"}, "[14]": {"conditions": "short-term, duration: 21 days, drinking water, M, ICR, cytokine mRNA for IL-6 in spleen (relative to beta-actin) + cytokine mRNA for TNF-alpha in spleen (relative to beta-actin) + expression of c…"}, "[15]": {"conditions": "short-term, duration: 28 days, gavage, M, BALB/c, testes: TNFa in testes"}, "[16]": {"conditions": "short-term, duration: 29 days, gavage, M, Crl:CD-1 (ICR) BR, IgM antibody titer (SRBC) + mean serum corticosterone + spleen: spleen: absolute weight + spleen: total number of splenocytes + thymus: …"}, "[17]": {"conditions": "short-term, duration: 29 days, gavage, M, Crl:CD-1 (ICR) BR, spleen: spleen: relative weight"}, "[18]": {"conditions": "subchronic, duration: 6 weeks, gavage, M, 129/SV, relative mRNA expression of TNF alpha/GAPDH in liver"}, "[19]": {"conditions": "subchronic, duration: 6 weeks, gavage, M, relative mRNA expression of TNF alpha/GAPDH in liver"}},
  "data": [
    {"smiles": "O=C([O-])C(F)(F)C(F)(F)C(F)(F)C(F)(F)C(F)(F)C(F)(F)C(F)(F)F.[NH4+]", "note": "[Ammonium perfluorooctanoate]", "values": [
      {"measurement": "LOEL", "setting": "[1]", "value": 0.01, "unit": "%"},
      {"measurement": "NOEL", "setting": "[1]", "value": 0.003, "unit": "%"},
      {"measurement": "LOEL", "setting": "[2]", "value": 0.01, "unit": "%"},
      {"measurement": "NOEL", "setting": "[2]", "value": 0.005, "unit": "%"},
      {"measurement": "NOEL", "setting": "short-term, duration: 10 days, drinking water, F, C57BL/6, spleen B220+ cells + spleen: spleen CD4+ cells + spleen: spleen CD8+ cells + spleen: spleen cellularity + spleen: spleen DN (CD4-/CD8-) …", "value": 7.5, "unit": "mg/kg-day"},
      {"measurement": "NOEL", "setting": "short-term, duration: 10 days, gavage, F, C57BL/6, IgG antibody titer (SRBC) + spleen: spleen: absolute weight + spleen: spleen: relative weight + thymus: thymus: absolute weight + thymus: …", "value": 30, "unit": "mg/kg-day"},
      {"measurement": "LOEL", "setting": "short-term, duration: 10 days, gavage, F, C57BL/6, IgM antibody titer (SRBC) + spleen: spleen: absolute weight + spleen: spleen: relative weight + thymus: thymus: absolute weight + thymus: …", "value": 30, "unit": "mg/kg-day"},
      {"measurement": "NOEL", "setting": "short-term, duration: 13 days, drinking water, F, C57BL/6, spleen: spleen B220+ cells + spleen: spleen CD4+ cells + spleen: spleen cellularity + spleen: spleen DP (CD4+/CD8+) cells + spleen: spleen …", "value": 7.5, "unit": "mg/kg-day"},
      {"measurement": "LOEL", "setting": "[3]", "value": 7.5, "unit": "mg/kg-day"},
      {"measurement": "NOEL", "setting": "[3]", "value": 3.75, "unit": "mg/kg-day"},
      {"measurement": "LOEL", "setting": "short-term, duration: 13 days, drinking water, F, C57BL/6, spleen: spleen DN (CD4-/CD8-) cells", "value": 3.75, "unit": "mg/kg-day"},
      {"measurement": "LOEL", "setting": "short-term, duration: 14 days, gavage, M, BALB/c, change in body weight + spleen: apoptosis in spleen cells + spleen: spleen: relative weight + thymus: thymus: relative weight", "value": 5, "unit": "mg/kg-day"},
      {"measurement": "NOEL", "setting": "short-term, duration: 14 days, gavage, M, BALB/c, relative mRNA expression of IL-1beta in spleen + relative mRNA expression of IL-1beta in thymus", "value": 20, "unit": "mg/kg-day"},
      {"measurement": "LOEL", "setting": "[4]", "value": 10, "unit": "mg/kg-day"},
      {"measurement": "NOEL", "setting": "[4]", "value": 5, "unit": "mg/kg-day"},
      {"measurement": "LOEL", "setting": "[5]", "value": 20, "unit": "mg/kg-day"},
      {"measurement": "NOEL", "setting": "[5]", "value": 10, "unit": "mg/kg-day"},
      {"measurement": "LOEL", "setting": "[6]", "value": 5, "unit": "mg/kg-day"},
      {"measurement": "NOEL", "setting": "[6]", "value": 2.5, "unit": "mg/kg-day"},
      {"measurement": "LOEL", "setting": "[7]", "value": 10, "unit": "mg/kg-day"},
      {"measurement": "NOEL", "setting": "[7]", "value": 5, "unit": "mg/kg-day"},
      {"measurement": "LOEL", "setting": "short-term, duration: 14 days, gavage, M, Kunming, liver: Cox-2 levels + liver: CRP levels + liver: IL-6 levels", "value": 10, "unit": "mg/kg-day"},
      {"measurement": "LOEL", "setting": "short-term, duration: 14 days, gavage, M, Kunming, liver: IL-6 levels + liver: TNF-alpha levels", "value": 10, "unit": "mg/kg-day"},
      {"measurement": "LOEL", "setting": "[8]", "value": 25, "unit": "mg/L"},
      {"measurement": "NOEL", "setting": "[8]", "value": 12.5, "unit": "mg/L"},
      {"measurement": "LOEL", "setting": "[9]", "value": 1.88, "unit": "mg/kg-day"},
      {"measurement": "NOEL", "setting": "[9]", "value": 0.94, "unit": "mg/kg-day"},
      {"measurement": "LOEL", "setting": "[10]", "value": 30, "unit": "mg/kg-day"},
      {"measurement": "NOEL", "setting": "[10]", "value": 7.5, "unit": "mg/kg-day"},
      {"measurement": "NOEL", "setting": "short-term, duration: 15 days, drinking water, F, C57BL/6, spleen: spleen B220+ cells + spleen: spleen cellularity + spleen: spleen DN (CD4-/CD8-) cells + spleen: spleen DP (CD4+/CD8+) cells", "value": 7.5, "unit": "mg/kg-day"},
      {"measurement": "LOEL", "setting": "short-term, duration: 15 days, drinking water, F, C57BL/6, spleen: spleen CD4+ cells + spleen: spleen CD8+ cells + spleen: spleen NK 1.1 cells", "value": 3.75, "unit": "mg/kg-day"},
      {"measurement": "LOEL", "setting": "[11]", "value": 100, "unit": "mg/L"},
      {"measurement": "NOEL", "setting": "[11]", "value": 50, "unit": "mg/L"},
      {"measurement": "NOEL", "setting": "short-term, duration: 15 days, drinking water, F, C57BL/6, spleen: spleen: absolute weight + spleen: spleen: relative weight + thymus: thymus: relative weight", "value": 200, "unit": "mg/L"},
      {"measurement": "LOEL", "setting": "short-term, duration: 15 days, drinking water, F, C57BL/6, thymus: thymus: relative weight", "value": 7.5, "unit": "mg/kg-day"},
      {"measurement": "LOEL", "setting": "[12]", "value": 30, "unit": "mg/kg-day"},
      {"measurement": "NOEL", "setting": "[12]", "value": 7.5, "unit": "mg/kg-day"},
      {"measurement": "NOEL", "setting": "short-term, duration: 15 days, drinking water, F, spleen: spleen: relative weight + thymus: thymus: relative weight", "value": 30, "unit": "mg/kg-day"},
      {"measurement": "NOEL", "setting": "short-term, duration: 15 days, gavage, F, C57BL/6, IgG antibody titer (SRBC) + spleen: spleen: absolute weight + spleen: spleen: relative weight + thymus: thymus: absolute weight + thymus: …", "value": 30, "unit": "mg/kg-day"},
      {"measurement": "LOEL", "setting": "short-term, duration: 15 days, gavage, F, C57BL/6, IgM antibody titer (SRBC) + spleen: spleen: absolute weight + spleen: spleen: relative weight + thymus: thymus: absolute weight + thymus: …", "value": 30, "unit": "mg/kg-day"},
      {"measurement": "NOEL", "setting": "short-term, duration: 16 days, diet, M, C57BL/6, - HRBC IgG1: 160 reciprocal serum dilution + - HRBC IgG1: 320 reciprocal serum dilution + - HRBC IgG1: 40 reciprocal serum dilution + - HRBC…", "value": 0.02, "unit": "%"},
      {"measurement": "LOEL", "setting": "short-term, duration: 16 days, diet, M, C57BL/6, IgG1 antibody-producing cells (HRBC) + IgG2b antibody-producing cells (HRBC) + IgG3 antibody-producing cells (HRBC) + IgM antibody-producing…", "value": 200, "unit": "mg/kg-day"},
      {"measurement": "LOEL", "setting": "short-term, duration: 16 days, diet, M, C57BL/6, IgG1 antibody-secreting cells (HRBC) + IgG1 antibody level (HRBC 1:160) + IgG1 antibody level (HRBC 1:20) + IgG1 antibody level (HRBC 1:80…", "value": 0.02, "unit": "%"},
      {"measurement": "LOEL", "setting": "[13]", "value": 17.6, "unit": "mg/kg-day"},
      {"measurement": "NOEL", "setting": "[13]", "value": 2.64, "unit": "mg/kg-day"},
      {"measurement": "LOEL", "setting": "[14]", "value": 47.2, "unit": "mg/kg-day"},
      {"measurement": "NOEL", "setting": "[14]", "value": 17.6, "unit": "mg/kg-day"},
      {"measurement": "NOEL", "setting": "short-term, duration: 21 days, drinking water, M, ICR, cytokine mRNA for IL-6 in thymus (relative to beta-actin) + cytokine mRNA for TNF-alpha in thymus (relative to beta-actin) + cytokine mRNA …", "value": 47.2, "unit": "mg/kg-day"},
      {"measurement": "LOEL", "setting": "short-term, duration: 21 days, drinking water, M, ICR, spleen: spleen CD8+ cells + spleen: spleen DN (CD4-CD8-) cells + spleen: spleen DP (CD4+CD8+) cells", "value": 0.49, "unit": "mg/kg-day"},
      {"measurement": "LOEL", "setting": "short-term, duration: 23 days, gavage, M, Crl:CD-1 (ICR) BR, IgM antibody titer (SRBC) + spleen: spleen: absolute weight + spleen: spleen: relative weight + spleen: total number of splenocytes + thymus…", "value": 30, "unit": "mg/kg-day"},
      {"measurement": "NOEL", "setting": "short-term, duration: 23 days, gavage, M, Crl:CD-1 (ICR) BR, mean serum corticosterone + spleen: incidence of spleen hematopoiesis + spleen: spleen: relative weight", "value": 30, "unit": "mg/kg-day"},
      {"measurement": "LOEL", "setting": "[15]", "value": 5, "unit": "mg/kg-day"},
      {"measurement": "NOEL", "setting": "[15]", "value": 1.25, "unit": "mg/kg-day"},
      {"measurement": "LOEL", "setting": "[16]", "value": 10, "unit": "mg/kg-day"},
      {"measurement": "NOEL", "setting": "[16]", "value": 1, "unit": "mg/kg-day"},
      {"measurement": "LOEL", "setting": "[17]", "value": 1, "unit": "mg/kg-day"},
      {"measurement": "NOEL", "setting": "[17]", "value": 0.3, "unit": "mg/kg-day"},
      {"measurement": "LOEL", "setting": "[18]", "value": 5, "unit": "mg/kg-day"},
      {"measurement": "NOEL", "setting": "[18]", "value": 1, "unit": "mg/kg-day"},
      {"measurement": "LOEL", "setting": "[19]", "value": 5, "unit": "mg/kg-day"},
      {"measurement": "NOEL", "setting": "[19]", "value": 1, "unit": "mg/kg-day"}
    ]}
  ]
}
